Measurements from ChEMBL document CHEMBL1132922, “Corticotropin releasing factor (CRF) receptor modulators: progress and opportunities for new therapeutic agents” (J Med Chem, 2000).
Residues, ends and D or L forms follow the SMILES beside them.

Assays:
[1] = target: T1, Corticotropin-releasing factor receptor 1 (Homo sapiens, UniProt P34998); assay: Activity of peptidic agonists on corticotropin releasing factor receptor using agonist-stimulated adenylate cyclase assay; format: functional
T1 sequence (P34998 whole entry): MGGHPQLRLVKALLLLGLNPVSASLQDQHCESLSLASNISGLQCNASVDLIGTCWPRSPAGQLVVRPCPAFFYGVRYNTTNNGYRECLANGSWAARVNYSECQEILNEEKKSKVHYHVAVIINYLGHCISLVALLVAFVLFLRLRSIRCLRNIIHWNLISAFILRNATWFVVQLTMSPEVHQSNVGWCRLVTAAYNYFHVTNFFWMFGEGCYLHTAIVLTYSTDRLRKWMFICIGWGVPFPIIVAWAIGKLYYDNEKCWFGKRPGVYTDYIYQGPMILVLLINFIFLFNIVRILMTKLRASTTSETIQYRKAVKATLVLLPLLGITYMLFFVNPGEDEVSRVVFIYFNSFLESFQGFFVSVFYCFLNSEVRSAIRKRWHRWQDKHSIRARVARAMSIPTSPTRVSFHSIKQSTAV

[2] = target: T2, Corticotropin-releasing factor receptor 2 (Homo sapiens, UniProt Q13324); assay: Binding affinity of the receptor h-CRF2-alpha with peptidic agonists
T2 sequence (Q13324 whole entry): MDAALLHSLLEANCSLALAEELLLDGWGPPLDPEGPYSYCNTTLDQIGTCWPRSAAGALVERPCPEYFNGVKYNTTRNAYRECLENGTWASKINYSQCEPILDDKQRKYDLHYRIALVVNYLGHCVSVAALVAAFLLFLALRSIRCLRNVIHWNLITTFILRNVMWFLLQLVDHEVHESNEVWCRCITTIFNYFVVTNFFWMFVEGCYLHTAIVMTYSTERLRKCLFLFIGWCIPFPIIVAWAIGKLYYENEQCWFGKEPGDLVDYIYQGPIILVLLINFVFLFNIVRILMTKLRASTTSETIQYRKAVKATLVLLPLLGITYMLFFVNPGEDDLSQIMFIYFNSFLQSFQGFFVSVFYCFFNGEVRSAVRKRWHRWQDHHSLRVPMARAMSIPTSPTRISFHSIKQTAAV

[3] = target: T1, Corticotropin-releasing factor receptor 1; assay: Binding affinity of the receptor corticotropin releasing factor receptor with peptidic agonists
[4] = target: T2, Corticotropin-releasing factor receptor 2; assay: Activity of peptidic agonists on h-CRF2-alpha receptor using agonist-stimulated adenylate cyclase assay; format: functional
Rattus norvegicus [5] = species on record: Rattus norvegicus; assay: effective concentration used to stimulate the secretion of adenocorticotropic hormone(ACTH) in primary cultures of rat pituitary cells; format: functional, cell-based; details: Pituitary gland cell
[6] = Inhibition of ovine CRF stimulated adenylate cyclase assay in CHO-p5 cells; format: functional, cell-based; details: Ovis aries
[7] = target: T3, Corticotropin releasing factor receptor (Rattus norvegicus, UniProt P47866+P35353); assay: (§1) Compound was tested for the binding affinity to rat corticotropin releasing factor receptor; format: protein assay
[8] = target: T3, Corticotropin releasing factor receptor; assay: Compound was tested for the inhibition of binding of the radioligand, [125 I-Tyr0]-CRF to rat cerebral cortex membrane; format: tissue-based
[9] = target: T1, Corticotropin-releasing factor receptor 1; assay: Compound was tested for the binding affinity to human corticotropin releasing factor 1 (hCRF1) receptors.
Rattus norvegicus [10] = species on record: Rattus norvegicus; assay: 50% inhibitory concentration to antagonize Corticotropin releasing factor (CRF) stimulated adenylate cyclase; format: functional
Rattus norvegicus [11] = assay: Percent reduction in latency time in the dark compartment at 20 mg/kg was reported; format: functional
HEK293 = assay: Inhibition of h- CRF mediated increase in adenylate cyclase activity was evaluated in HEK293 cells; format: functional, cell-based; details: Homo sapiens
Rattus norvegicus [12] = assay: Minimum effective dose in rat […] anxiety test when administered perorally; format: functional; details: po, read-out: MED
Rattus norvegicus [13] = species on record: Rattus norvegicus; assay: Oral activity was evaluated in an rat situational anxiety test; format: functional
[14] = target: T1, Corticotropin-releasing factor receptor 1; assay: Compound was tested for the binding affinity to human corticotropin releasing factor 1 (hCRF1) receptors
[15] = target: T3, Corticotropin releasing factor receptor; assay: Inhibition of binding of the radioligand, [125 I-Tyr0]-CRF to rat cerebral cortex membrane; format: tissue-based
[16] = target: T3, Corticotropin releasing factor receptor; assay: as §1; format: protein assay; remark: listed apart in the source

Compound: CC[C@H](C)[C@H](NC(=O)[C@H](CC(=O)O)NC(=O)[C@H](CC(C)C)NC(=O)[C@H](CC(C)C)NC(=O)[C@H](CCCCN)NC(=O)[C@H](CCCN=C(N)N)NC(=O)[C@H](CC(N)=O)NC(=O)[C@H](CO)NC(=O)[C@H](Cc1cnc[nH]1)NC(=O)[C@H](C)NC(=O)[C@H](CCC(N)=O)NC(=O)[C@H](CCC(N)=O)NC(=O)[C@H](C)NC(=O)[C@H](CC(C)C)NC(=O)[C@H](CCC(N)=O)NC(=O)[C@H](CC(=O)O)NC(=O)[C@H](C)NC(=O)[C@H](CCCCN)NC(=O)[C@@H](NC(=O)[C@H](CCSC)NC(=O)[C@H](CCC(=O)O)NC(=O)[C@H](CC(C)C)NC(=O)[C@@H](NC(=O)[C@H](CCC(=O)O)NC(=O)[C@H](CCCN=C(N)N)NC(=O)[C@H](CC(C)C)NC(=O)[C@H](CC(C)C)NC(=O)[C@H](Cc1cnc[nH]1)NC(=O)[C@H](Cc1ccccc1)NC(=O)[C@@H](NC(=O)[C@H](CC(C)C)NC(=O)[C@H](CC(=O)O)NC(=O)[C@H](CC(C)C)NC(=O)[C@H](CO)NC(=O)[C@@H](NC(=O)[C@@H]1CCCN1C(=O)[C@@H]1CCCN1C(=O)[C@H](CCC(=O)O)NC(=O)[C@H](CCC(N)=O)NC(=O)[C@@H](N)CO)[C@@H](C)CC)[C@@H](C)O)C(C)C)[C@@H](C)O)C(=O)N[C@@H](C)C(N)=O
- EC50 [1]: 9.7 nM
- Ki [2]: 86.4 nM
- Ki [3]: 7.16 nM
- EC50 [4]: 61.9 nM

Compound: CC[C@H](C)[C@H](NC(=O)[C@@H](NC(=O)[C@H](CCC(=O)O)NC(=O)[C@H](CCSC)NC(=O)[C@H](CC(C)C)NC(=O)[C@H](CCCCN)NC(=O)[C@H](CCCN=C(N)N)NC(=O)[C@H](CC(N)=O)NC(=O)[C@H](CO)NC(=O)[C@H](Cc1c[nH]cn1)NC(=O)[C@H](C)NC(=O)[C@H](CCC(N)=O)NC(=O)[C@H](CCC(N)=O)NC(=O)[C@H](C)NC(=O)[C@H](CC(C)C)NC(=O)[C@H](CCC(N)=O)NC(=O)[C@H](CCC(=O)O)NC(=O)[C@H](C)NC(=O)[C@H](CCCN=C(N)N)NC(=O)[C@H](C)NC(=O)[C@H](CCSC)NC(=O)[C@H](CCC(=O)O)NC(=O)[C@H](CC(C)C)NC(=O)[C@@H](NC(=O)[C@H](CCC(=O)O)NC(=O)[C@H](CCCN=C(N)N)NC(=O)[C@H](CC(C)C)NC(=O)[C@H](CC(C)C)NC(=O)[C@H](Cc1c[nH]cn1)NC(=O)[C@H](Cc1ccccc1)NC(=O)[C@@H](NC(=O)[C@H](CC(C)C)NC(=O)[C@H](CC(=O)O)NC(=O)[C@H](CC(C)C)NC(=O)[C@H](CO)NC(=O)[C@@H](NC(=O)[C@@H]1CCCN1C(=O)[C@@H]1CCCN1C(=O)[C@H](CCC(=O)O)NC(=O)[C@H](CCC(=O)O)NC(=O)[C@@H](N)CO)[C@@H](C)CC)[C@@H](C)O)C(C)C)[C@@H](C)CC)C(N)=O
- EC50 (Rattus norvegicus [5]): 0.2 nM

Compound: CCCCN(CC)c1cc(C)nc2c(-c3ccc(Cl)cc3Cl)c(C)nn12
- IC50 [6]: 357 nM

Compound: CCc1nc2c(c(C)nn2-c2ccc(C(C)C)cc2Br)n1Cc1ccccc1
- Ki [7]: 4 nM

Compound: CCN(c1nc(C)cc(N2CCC=C(c3ccccc3C)C2)n1)c1ccc(C(C)C)cc1SC
- IC50 [8]: 10 nM

Compound: CCC(CC)n1nnc2c(N3CCc4cc(Cl)cc(Cl)c43)nc(C)cc21
- Ki [9]: 1.3 nM

Compound: CCCN(CCOC)c1cc(C)nc2c(-c3ccc(OC)c(OC)c3)c(C)nn12
- Ki [9]: 13.7 nM

Compound: CCN(c1nc(C)cc(N2CC=C(c3cccc(F)c3)CC2)n1)c1ccc(C(C)C)cc1SC
- IC50 [8]: 12.7 nM

Compound: CCCN(c1nc(-c2ccc(Cl)cc2Cl)c(C)s1)c1cccc2ncccc12
- IC50 [8]: 80 nM

Compound: CC[C@H](C)[C@H](NC(=O)[C@@H](NC(=O)[C@H](CC(=O)O)NC(=O)[C@H](CC(C)C)NC(=O)[C@H](CC(C)C)NC(=O)[C@H](CC(C)C)NC(=O)[C@H](CCCN=C(N)N)NC(=O)[C@H](CC(N)=O)NC(=O)[C@H](CC(N)=O)NC(=O)[C@H](C)NC(=O)[C@H](C)NC(=O)[C@H](CCC(N)=O)NC(=O)[C@H](CCC(N)=O)NC(=O)[C@H](CCCCN)NC(=O)[C@H](CCC(=O)O)NC(=O)[C@H](CCCCN)NC(=O)[C@H](CCC(=O)O)NC(=O)[C@H](CCC(N)=O)NC(=O)[C@H](CCCCN)NC(=O)[C@H](CCC(=O)O)NC(=O)[C@@H](NC(=O)[C@H](CCC(=O)O)NC(=O)[C@@H](NC(=O)[C@H](CCSC)NC(=O)[C@H](CCCCN)NC(=O)[C@H](CCCN=C(N)N)NC(=O)[C@H](CC(C)C)NC(=O)[C@H](CC(C)C)NC(=O)[C@H](CCC(=O)O)NC(=O)[C@H](CC(C)C)NC(=O)[C@H](CO)NC(=O)[C@H](CC(C)C)NC(=O)[C@H](CC(=O)O)NC(=O)[C@@H](NC(=O)[C@H](CO)NC(=O)[C@@H](NC(=O)[C@@H]1CCCN1C(=O)[C@@H]1CCCN1C(=O)CNC(=O)[C@@H](N)CCC(N)=O)[C@@H](C)CC)[C@@H](C)CC)[C@@H](C)CC)[C@@H](C)CC)[C@@H](C)O)C(N)=O
- EC50 [1]: 3.4 nM
- Ki [2]: 2.73 nM
- Ki [3]: 7.3 nM
- EC50 [4]: 1.4 nM

Compound: Cc1cc(C)nc(N(C)c2ccccc2Br)n1
- IC50 (Rattus norvegicus [10]): 20000 nM

Compound: CCC(CC)Nc1cc(C)nc2c(-c3ccc(OC)cc3C)c(C)nn12
- Reduction (Rattus norvegicus [11]): 57%
- IC50 (HEK293): 10000 nM
- minimal effective dose (Rattus norvegicus [12]): 1 mg/kg
- ED50 (Rattus norvegicus [13]): 1 mg/kg
- Ki [14]: 1 nM

Compound: Cc1c(SSc2c(C)n(C)n(-c3ccc4ccccc4c3)c2=O)c(=O)n(-c2ccc3ccccc3c2)n1C
- IC50 (Rattus norvegicus [10]): 1000 nM
- IC50 [15]: 3300 nM

Compound: CCN(c1nc(C)cc(N2CC=C(c3cccc(F)c3)CC2)n1)c1ccc(C(C)C)cc1Br
- IC50 [8]: 22.1 nM

Compound: CCCCC(CC)n1c(C)nc2c(-c3ccc(Cl)cc3Cl)ncnc21 (configuration not stated)
- Ki [7]: 8.8 nM

Compound: CC(=O)Sc1c(C)n(C)n(-c2ccccc2)c1=O
- IC50 (Rattus norvegicus [10]): 2900 nM
- IC50 [15]: 13700 nM

Compound: CC[C@H](C)[C@H](NC(=O)[C@H](CO)NC(=O)[C@H](CC(C)C)NC(=O)[C@H](CO)NC(=O)[C@@H]1CCCN1C(=O)[C@H](CC(N)=O)NC(=O)[C@@H](N)CC(=O)O)C(=O)N[C@@H](CC(=O)O)C(=O)N[C@@H](CC(C)C)C(=O)N[C@H](C(=O)N[C@@H](Cc1ccccc1)C(=O)N[C@@H](Cc1cnc[nH]1)C(=O)N[C@@H](CC(C)C)C(=O)N[C@@H](CC(C)C)C(=O)N[C@@H](CCCNC(=N)N)C(=O)N[C@H](C(=O)N[C@@H](CC(C)C)C(=O)N[C@@H](CC(C)C)C(=O)N[C@@H](CCC(=O)O)C(=O)N[C@@H](CC(C)C)C(=O)N[C@@H](C)C(=O)N[C@@H](CCCNC(=N)N)C(=O)N[C@H](C(=O)N[C@@H](CCC(N)=O)C(=O)N[C@@H](CO)C(=O)N[C@@H](CCC(N)=O)C(=O)N[C@@H](CCCNC(=N)N)C(=O)N[C@@H](CCC(=O)O)C(=O)N[C@@H](CCCNC(=N)N)C(=O)N[C@@H](C)C(=O)N[C@@H](CCC(=O)O)C(=O)N[C@@H](CCC(N)=O)C(=O)N[C@@H](CC(N)=O)C(=O)N[C@@H](CCCNC(=N)N)C(=O)N[C@H](C(=O)N[C@H](C(=O)N[C@@H](Cc1ccccc1)C(=O)N[C@@H](CC(=O)O)C(=O)N[C@@H](CO)C(=O)N[C@H](C(N)=O)C(C)C)[C@@H](C)CC)[C@@H](C)CC)[C@@H](C)O)[C@@H](C)O)[C@@H](C)O (H-DNPSLSIDLTFHLLRTLLELARTQSQRERAEQNRIIFDSV-NH2)
- EC50 [1]: 0.22 nM
- Ki [2]: 3.6 nM
- Ki [3]: 3.76 nM
- EC50 [4]: 0.32 nM

Compound: CCCCN(CC)c1nc(C)nc2c1c(C)c(C)n2-c1c(C)cc(C)cc1C [ANTALARMIN]
- Ki [16]: 1 nM

Compound: H-NDDPPISIDLTFHLLRNMIEMARIENEREQAGLNRKYLDEV-NH2
- EC50 [1]: 6.3 nM
- Ki [2]: 1.26 nM
- Ki [3]: 1.07 nM
- EC50 [4]: 1.5 nM
